In ChEMBL document CHEMBL1141636, “New ultra-short acting hypnotic: synthesis, biological evaluation, and metabolic profile of ethyl 8-oxo-5,6,7,8-tetrahydro-thiazolo[3,2-a][1,3]diazepin-3-carboxylate (HIE-124)” (Bioorg Med Chem Lett, 2008):

Experiments:
[1] = system: Mus musculus; experiment: Hypnotic effect in mouse assessed as sleeping time at 50 mg/kg, iv by loss of righting reflex method; assay type: functional
[2] = system: Mus musculus; experiment: Hypnotic effect in mouse assessed as sleeping time at 100 mg/kg, iv by loss of righting reflex method; assay type: functional
[3] = system: Mus musculus; experiment: Potentiation of thiopental-induced hypnosis in mouse assessed as sleeping time at 50 mg/kg, iv by loss of righting reflex method; assay type: functional
[4] = system: Mus musculus; experiment: Potentiation of thiopental-induced hypnosis in mouse assessed as sleeping time at 100 mg/kg, iv by loss of righting reflex method; assay type: functional
[5] = system: Mus musculus; experiment: Hypnotic effect in mouse assessed as sleeping time at 100 mg/kg, ip; assay type: functional; conditions: route intraperitoneal
[6] = system: Mus musculus; experiment: Hypnotic effect in mouse assessed as sleeping time at 200 mg/kg, ip; assay type: functional; conditions: route intraperitoneal
[7] = system: Mus musculus; experiment: Potentiation of thiopental-induced hypnosis in mouse assessed as sleeping time at 100 mg/kg, ip; assay type: functional; conditions: route intraperitoneal
[8] = system: Mus musculus; experiment: Potentiation of thiopental-induced hypnosis in mouse assessed as sleeping time at 200 mg/kg, ip; assay type: functional; conditions: route intraperitoneal
[9] = system: Mus musculus; experiment: Acute tolerance in mouse assessed as sleeping time at 200 mg/kg, ip 3 times day after 3 days; assay type: ADME, organism-based; design: dose 200 mg/kg, route intraperitoneal; conditions: in vivo, 72 h
[10] = system: Mus musculus; experiment: Acute tolerance in mouse assessed as sleeping time at 200 mg/kg, ip; assay type: ADME, organism-based; design: dose 200 mg/kg, route intraperitoneal; conditions: in vivo
[11] = system: Mus musculus; experiment: Hypnotic effect in mouse assessed as sleeping time at 65 mg/kg, ip; assay type: functional; conditions: route intraperitoneal

## CCOC(=O)C1=CSC2=NC(=O)CCCN12
[1]
  Time: 0.75 min
[2]
  Time: 1.48 min
[3]
  Time: 19.9 min
[4]
  Time: 25.7 min
[5]
  Time: 2.4 min
[6]
  Time: 9.1 min
[7]
  Time: 49.2 min
[8]
  Time: 155.7 min
[9]
  Time: 8.7 min
[10]
  Time: 10.3 min

## CCCC(C)C1(CC)C(=O)[N-]C(=S)NC1=O.[Na+] (configuration not stated) [THIOPENTAL SODIUM]
[1]
  Time: 4.9 min
[11]
  Time: 15.2 min
